This note sets out measurements from patent US10660967B2, “Curcumin conjugates and methods of use thereof” (priority 2016, dated 2020).

Each structure is given as a SMILES string. Where two headings read alike, the source gives them in different places.

The test system of assay [1] is MCF7 (breast) carcinoma cell line. Kind of assay: Anti-tumor properties, MTT. Type of assay: cell-based. The note with it: Homo sapiens, MCF7; read-out: IC50 (μM) MCF7 (breast). In short, it runs like this: (§1)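 Cells seeded at 10×10^3 per well for 24 h, then exposed to compound in serum-free medium (final up to 100 μM, 0.5% DMSO vehicle) for 72 h in triplicate. Viability by MTT reduction (4 h, SDS solubilised), absorbance 595 nm/ref 620 nm; IC50 from survival curves.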

For assay [2], the system named is HepG2 (hepatocellular) carcinoma cell line. Kind of assay: Anti-tumor properties, MTT. Type of assay: cell-based. The note with it: Homo sapiens, HepG2; read-out: IC50 (μM) HepG2 (liver). In short, it runs like this: as §1
The test system of assay [3] is HCT116 (colon) carcinoma cell line. Kind of assay: Anti-tumor properties, MTT. As to conditions: Homo sapiens, HCT-116; read-out: IC50 (μM) HCT116 (colon). Format: cell-based. In short, it runs like this: as §1
The test system of assay [4] is lipopolysaccharide-stimulated peritoneal macrophages. Kind of assay: Production of nitric oxide by lipopolysaccharide-stimulated peritoneal macrophages (Greiss reagent). The arrangement: Potency (%): % inhibition of nitric oxide production relative to lipopolysaccharide-stimulated macrophages: concentration or dose not given beside the values. Type of assay: cell-based. As to conditions: LPS-stimulated peritoneal macrophages; for Nitric oxide (nitrite) concentration, μM (average ± SD): 24 h, nitrite by Greiss reagent. In short, it runs like this: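 Macrophages in nitrite-free medium with 0.1% BSA were stimulated with LPS at 0.5–10 ng/ml, some wells also receiving epinephrine, norepinephrine or dopamine at […], for 24 h at 37° C. Nitrite in supernatants was measured with Greiss reagent, 15 min at room temperature, absorbance 532 nm.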

Assay [5] has as its system PHA-stimulated splenocytes. Kind of assay: Proliferative response of PHA-stimulated splenocytes (MTT assay). Format: cell-based. As to conditions: PHA 5 μg/ml, 72 hr; compounds at 5 μM (method says 10 μM); ratio of O.D. versus vehicle control. In short, it runs like this: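 Freshly prepared splenocytes (1×10^6 cells/well) were cultured for 72 h at 37° C with compound at 10 μM final, with or without PHA (5 μg/ml). Viability was read by MTT (4 h), with absorbance at 570 nm against 690 nm reference. Stimulation index is the OD ratio of treated versus vehicle cultures.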
(Formazan colour is commonly taken as a measure of viable cells.)

Assay [6] deals with Staphylococcus aureus ATCC25923. Kind of assay: Antimicrobial MIC, agar dilution.
The test system of assay [7] is Candida albicans (local isolate). The assay can be described thus: Antimicrobial MIC, agar dilution. The note with it: Candida albicans, read-out: Minimum inhibitory concentration (MIC). For orientation: In agar dilution the substance is mixed into plates at graded concentrations.
Assay [8] concerns PC3 (prostate) carcinoma cell line. Kind of assay: Anti-tumor properties, MTT. Format: cell-based. As to conditions: Homo sapiens.
Assay [9] concerns Streptococcus pyogenes ATCC19615. The assay can be described thus: Antimicrobial MIC, agar dilution.
Assay [10] concerns Salmonella typhi ATCC19430. Kind of assay: Antimicrobial MIC, agar dilution. The note with it: Salmonella enterica, read-out: Minimum inhibitory concentration (MIC). Format: cell-based.
Assay [11] concerns Pseudomonas aeruginosa ATCC27853. Kind of assay: Antimicrobial MIC, agar dilution.
Assay [12] has as its system A-549 (lung) carcinoma cell line. The assay can be described thus: Anti-tumor properties, MTT. The note with it: Homo sapiens, A549. Format: cell-based.
[13] abbreviates: ATCC25923, 18 h, read-out: Minimum inhibitory concentration (MIC).
Where [14] appears, read: ATCC25923, read-out: Minimum inhibitory concentration (MIC).
The mark [15] stands for this setting: ATCC19615, 18 h, read-out: Minimum inhibitory concentration (MIC).
The mark [16] stands for this setting: ATCC19615, read-out: Minimum inhibitory concentration (MIC).
The mark [17] stands for this setting: ATCC27853, 18 h, read-out: Minimum inhibitory concentration (MIC).
[18] abbreviates: ATCC27853, read-out: Minimum inhibitory concentration (MIC).

On to `COc1cc(/C=C/C(=O)CC(=O)/C=C/c2ccc(OC(=O)[C@H](C)N)c(OC)c2)ccc1OC(=O)[C@H](C)N.Cl.Cl` [HCl-L-Ala-Cur, (2S,2′S)-1,1′-((((1E,6E)-3,5-dioxohepta-1,6-diene-1,7-diyl)bis(2-methoxy-4,1-phenylene))bis(oxy))bis(1-oxopropan-2-aminium) chloride], for which the IC50 in assay [1] worked out at 10.7 µM; in assay [2] it was 33.8 µM; in [3], 38.8 µM; in assay [8], 31.5 µM; in assay [12], 21.7 µM. For the same compound, the “Potency (%): % inhibition of nitric oxide production relative to lipopolysaccharide-stimulated macrophages” value in assay [4] turned out to be 46.24%. Moreover, the “Nitric oxide (nitrite) concentration, μM (average ± SD)” value (“Nitric oxide … (average ± SD)” for short) in [4] turned out to be 14.68 ± 1.20 µM. Besides, the “Stimulation Index (average ± SD)” value in assay [5] was 1.14 ± 0.18. Also, the MIC in assay [6] (setting [13]) was determined as 0.5 µg/mL; in assay [6] (setting [14]), 0.857 µM; in assay [7] (18 h), 0.5 µg/mL; in assay [7], 0.857 µM; in assay [9] (setting [15]) it was 0.5 µg/mL; in [9] (setting [16]), 0.857 µM. Moreover, the MIC is 0.5 µg/mL in assay [10] (18 h), 0.857 µM in assay [10], 0.25 µg/mL in [11] (setting [17]) and 0.428 µM in assay [11] (setting [18]).

On to `COc1cc(/C=C/C(=O)CC(=O)/C=C/c2ccc(OC(=O)[C@@H](N)Cc3ccccc3)c(OC)c2)ccc1OC(=O)[C@@H](N)Cc1ccccc1.Cl.Cl` [HCl-L-Phe-Cur, (2S,2′S)-1,1′-((((1E,6E)-3,5-dioxohepta-1,6-diene-1,7-diyl)bis(2-methoxy-4,1-phenylene))bis(oxy))bis(1-oxo-3-phenylpropan-2-aminium) chloride], for which the IC50 in [1] stood at 11.5 µM; in assay [2], 56.2 µM; in assay [3], 65.6 µM; in assay [8] it was 74.4 µM; in assay [12], 33.5 µM. In assay [4], the “Potency (%): % inhibition of nitric oxide production relative to lipopolysaccharide-stimulated macrophages” value was 39.74%. Moreover, in assay [4], the “Nitric oxide … (average ± SD)” value worked out at 16.46 ± 2.05 µM. The “Stimulation Index (average ± SD)” value in [5] is 1.41 ± 0.31. The MIC turned out to be 0.25 µg/mL in [6] (setting [13]); 0.34 µM in [6] (setting [14]); 0.5 µg/mL in assay [7] (18 h); 0.68 µM in [7]; 0.5 µg/mL in assay [9] (setting [15]); 0.68 µM in assay [9] (setting [16]). For the same compound, the MIC worked out at 0.125 µg/mL in assay [10] (18 h), 0.17 µM in assay [10], 0.5 µg/mL in assay [11] (setting [17]) and 0.68 µM in assay [11] (setting [18]).

For `COc1cc(/C=C/C(=O)CC(=O)/C=C/c2ccc(OC(=O)[C@@H](N)C(C)C)c(OC)c2)ccc1OC(=O)[C@@H](N)C(C)C.Cl.Cl` [HCl-L-Val-Cur, (2S,2′S)-1,1′-((((1E,6E)-3,5-dioxohepta-1,6-diene-1,7-diyl)bis(2-methoxy-4,1-phenylene))bis(oxy))bis(3-methyl-1-oxobutan-2-aminium) chloride], the half-maximal inhibitory concentration (IC50) in assay [1] came out at 10.4 µM; in [2], 39.1 µM; in [3] it was 66.5 µM; in assay [8] it was 34.6 µM; in [12], 20.4 µM. In assay [4], the “Potency (%): % inhibition of nitric oxide production relative to lipopolysaccharide-stimulated macrophages” value is 24.37%. In addition, in [4], the “Nitric oxide … (average ± SD)” value was 20.65 ± 0.99 µM. The “Stimulation Index (average ± SD)” value in assay [5] was found to be 2.05 ± 0.15. Further, the MIC in [6] (setting [13]) came to 0.25 µg/mL; in assay [6] (setting [14]), 0.391 µM; in assay [7] (18 h), 0.125 µg/mL; in assay [7] it was 0.195 µM; in assay [9] (setting [15]) it was 0.125 µg/mL; in assay [9] (setting [16]), 0.195 µM. The MIC in [10] (18 h) stood at 0.125 µg/mL; in assay [10], 0.195 µM; in [11] (setting [17]), 0.25 µg/mL; in assay [11] (setting [18]), 0.391 µM.

Consider `COc1cc(/C=C/C(=O)CC(=O)/C=C/c2ccc(OC(=O)[C@@H](N)CCC(N)=O)c(OC)c2)ccc1OC(=O)[C@@H](N)CCC(N)=O.Cl.Cl` [HCl-L-Gln-Cur, (2S,2′S)-1,1′-((((1E,6E)-3,5-dioxohepta-1,6-diene-1,7-diyl)bis(2-methoxy-4,1-phenylene))bis(oxy))bis(5-amino-1,5-dioxopentan-2-aminium) chloride], for which the IC50 was determined as 9.15 µM in [1]; 39.1 µM in assay [2]; 41 µM in assay [3]; 34.4 µM in assay [8]; 21.1 µM in assay [12]. The “Potency (%): % inhibition of nitric oxide production relative to lipopolysaccharide-stimulated macrophages” value in [4] is reported as 20.35%. For the same compound, the “Nitric oxide … (average ± SD)” value in assay [4] came to 21.75 ± 1.31 µM. Further, the “Stimulation Index (average ± SD)” value in assay [5] amounted to 2.22 ± 0.20. Moreover, the MIC in [6] (setting [13]) came to 0.25 µg/mL; in assay [6] (setting [14]), 0.358 µM; in assay [7] (18 h) it was 0.125 µg/mL; in [7] it was 0.179 µM; in assay [9] (setting [15]), 0.5 µg/mL; in [9] (setting [16]), 0.717 µM. Also, the MIC is 0.125 µg/mL in assay [10] (18 h), 0.179 µM in assay [10], 0.5 µg/mL in assay [11] (setting [17]) and 0.717 µM in assay [11] (setting [18]).

For `COc1cc(/C=C/C(=O)CC(=O)/C=C/c2ccc(OC(=O)C(C)N)c(OC)c2)ccc1OC(=O)C(C)N.Cl.Cl` (racemic) [HCl-DL-Ala-Cur, 1,1′-((((1E,6E)-3,5-dioxohepta-1,6-diene-1,7-diyl)bis(2-methoxy-4,1-phenylene))bis(oxy))bis(1-oxopropan-2-aminium) chloride], the IC50 in [1] is 9.79 µM; in [2] it was 36.8 µM; in assay [3], 66.9 µM; in [8] it was 21.7 µM; in assay [12] it was 22.2 µM. Further, the “Potency (%): % inhibition of nitric oxide production relative to lipopolysaccharide-stimulated macrophages” value in assay [4] came out at 27.69%. Further, the “Nitric oxide … (average ± SD)” value in assay [4] was determined as 19.75 ± 0.97 µM. Besides, the “Stimulation Index (average ± SD)” value in assay [5] was 1.91 ± 0.15. Besides, the MIC in assay [6] (setting [13]) came to 0.125 µg/mL; in assay [6] (setting [14]), 0.214 µM; in [7] (18 h), 1 µg/mL; in assay [7], 1.71 µM; in assay [9] (setting [15]), 0.25 µg/mL; in assay [9] (setting [16]), 0.428 µM. For the same compound, the MIC is 0.25 µg/mL in [10] (18 h), 0.428 µM in assay [10], 0.5 µg/mL in assay [11] (setting [17]) and 0.857 µM in assay [11] (setting [18]).

For orientation: IC50 means the point on the concentration scale where inhibition reaches its midpoint.
